In patent US20170198006A1, “PRMT5 INHIBITORS AND USES THEREOF” (Epizyme, Inc., priority 2014, published 2017):
pIC50: −log10 of the molar value.

Target: T1, PRMT5/MEP50 (Homo sapiens, UniProt O14744)
T1 construct: Flag-PRMT5; made in house; host or cells: Spodoptera frugiperda (SF9), baculovirus
Assay: PRMT5 Biochemical Assay (PRMT5/MEP50 enzyme assay on histone H4 peptide substrate, 3H-SAM Flashplate)
Settings: PRMT5 biochemical assay; read-out: Biochemical IC50
Source text: S-adenosylmethionine (SAM), S-adenosylhomocysteine (SAH), bicine, KCl, Tween20, dimethylsulfoxide (DMSO), bovine skin gelatin (BSG), and Tris(2-carboxyethyl)phosphine hydrochloride solution (TCEP) were purchased from Sigma-Aldrich at the highest level of purity possible. ^3H-SAM was purchase from American Radiolabeled Chemicals with a specific activity of 80 Ci/mmol. 384-well streptavidin Flashplates were purchased from PerkinElmer.
Peptide representative of human histone H4 residues 1-15 was synthesized with a C-terminal linker-affinity tag motif and a C-terminal amide cap by 21st Century Biochemicals.
The amplified genes were sublconed into pENTR/D/TEV (Life Technologies) and subsequently transferred by Gateway™ attL×attR recombination to pDEST8 baculvirus expression vector (Life Technologies).
Protein over-expression was accomplished by infecting exponentially growing Spodoptera frugiperda (SF9) cell culture at 1.2×10^6 cell/ml with a 5000 fold dilution of BIIC stock. Infections were carried out at 27° C. for 72 hours, harvested by centrifugation, and stored at −80° C. for purification.
Flag-PRMT5/6His-MeP50 was eluted with 300 mM Imidazole in the same buffer.
General Procedure for PRMT5/MEP50 Enzyme Assays on Peptide Substrates.
The assays were all performed in a buffer consisting of 20 mM Bicine (pH=7.6), 1 mM TCEP, 0.005% BSG, and 0.002% Tween20, prepared on the day of use. […] DMSO (1 ul) was added to Columns 11, 12, 23, 24, rows A-H for the maximum signal control and 1 ul of SAH, a known product and inhibitor of PRMT5/MEP50, was added to columns 11, 12, 23, 24, rows I-P for the minimum signal control. A cocktail (40 ul) containing the PRMT5/MEP50 enzyme and the peptide was added by Multidrop Combi (Thermo-Fisher). The compounds were allowed to incubate with PRMT5/MEP50 for 30 min at 25 degrees Celsius, then a cocktail (10 ul) containing ^3H-SAM was added to initiate the reaction (final volume=51 ul). […] The assays were stopped by the addition of non-radioactive SAM (10 ul) to a final concentration of 600 uM, which dilutes the ^3H-SAM to a level where its incorporation into the peptide substrate is no longer detectable. 50 ul of the reaction in the 384-well polypropylene plate was then transferred to a 384-well Flashplate and the biotinylated peptides were allowed to bind to the streptavidin surface for at least 1 hour before being washed three times with 0.1% Tween20 in a Biotek ELx405 plate washer. The plates were then read in a PerkinElmer TopCount plate reader to measure the quantity of ^3H-labeled peptide bound to the Flashplate surface, measured as disintegrations per minute (dpm) or alternatively, referred to as counts per minute (cpm).
Where dpm=disintegrations per minute, cmpd=signal in assay well, and min and max are the respective minimum and maximum signal controls.
Where top and bottom are the normally allowed to float, but may be fixed at 100 or 0 respectively in a 3-parameter fit. The Hill Coefficient normally allowed to float but may also be fixed at 1 in a 3-parameter fit. Y is the % inhibition and X is the compound concentration.

T1 sequence (O14744 with tags, fused parts or gaps): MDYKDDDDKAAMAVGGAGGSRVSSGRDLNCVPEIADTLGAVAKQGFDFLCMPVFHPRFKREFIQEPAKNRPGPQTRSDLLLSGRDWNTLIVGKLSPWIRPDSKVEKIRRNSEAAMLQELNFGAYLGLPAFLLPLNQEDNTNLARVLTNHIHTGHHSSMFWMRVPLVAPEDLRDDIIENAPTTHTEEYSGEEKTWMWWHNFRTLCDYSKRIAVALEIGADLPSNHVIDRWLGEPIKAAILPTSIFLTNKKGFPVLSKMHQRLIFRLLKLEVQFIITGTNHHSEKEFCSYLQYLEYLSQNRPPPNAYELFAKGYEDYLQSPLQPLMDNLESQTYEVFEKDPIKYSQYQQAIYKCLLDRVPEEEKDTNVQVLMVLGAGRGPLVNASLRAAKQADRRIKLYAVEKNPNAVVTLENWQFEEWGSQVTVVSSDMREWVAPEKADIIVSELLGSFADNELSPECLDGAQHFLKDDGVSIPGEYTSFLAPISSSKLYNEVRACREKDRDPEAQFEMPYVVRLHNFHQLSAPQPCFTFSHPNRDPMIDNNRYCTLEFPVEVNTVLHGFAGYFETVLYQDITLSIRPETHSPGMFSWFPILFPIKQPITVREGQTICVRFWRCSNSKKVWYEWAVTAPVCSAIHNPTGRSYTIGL
T1 sequence (Q9BQA1 with tags, fused parts or gaps partner limits assumed): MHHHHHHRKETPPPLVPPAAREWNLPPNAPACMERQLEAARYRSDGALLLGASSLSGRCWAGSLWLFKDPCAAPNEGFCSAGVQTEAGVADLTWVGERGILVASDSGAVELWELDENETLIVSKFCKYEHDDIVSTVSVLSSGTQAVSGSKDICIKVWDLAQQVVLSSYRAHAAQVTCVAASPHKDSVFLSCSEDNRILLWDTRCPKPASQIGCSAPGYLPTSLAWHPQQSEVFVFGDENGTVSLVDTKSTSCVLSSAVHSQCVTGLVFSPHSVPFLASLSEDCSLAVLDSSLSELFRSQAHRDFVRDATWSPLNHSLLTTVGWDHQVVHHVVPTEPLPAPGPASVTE

pIC50 | SMILES
6.00 to 7.00 | CN(CCO)CCN(C)C[C@H]1O[C@@H](n2cnc3c(N)ncnc32)[C@H](O)[C@@H]1O [Compound 46-1]
6.00 to 7.00 | CN(CCc1c[nH]cn1)CCN(C)C[C@H]1O[C@@H](n2cnc3c(N)ncnc32)[C@H](O)[C@@H]1O [Compound 47-1]
> 7.00 | CN(CCN(CC[C@H](N)C(=O)OCc1ccccc1)C[C@H]1O[C@@H](n2cnc3c(N)ncnc32)[C@H](O)[C@@H]1O)C(=O)OCc1ccccc1 [Compound 49-1]
4.30 to 5.00 | O=C(CC1NC(N2CCN(c3ccccc3)CC2)=NC1=O)Nc1ccccc1Cl (stereo not drawn) [Compound 49-14]
6.00 to 7.00 | CCN(CCc1ccc(Cl)cc1)CCN(C)C[C@H]1O[C@@H](n2cnc3c(N)ncnc32)[C@H](O)[C@@H]1O [Compound 50-1]
5.00 to 6.00 | O=C(CC1NC(N2CCN(c3ccccc3)CC2)=NC1=O)Nc1cccc(Cl)c1 (stereo not drawn) [Compound 50-14]
6.00 to 7.00 | CN(CCN(CCc1ccc(Cl)cc1)Cc1ccccc1)C[C@H]1O[C@@H](n2cnc3c(N)ncnc32)[C@H](O)[C@@H]1O [Compound 51-1]
4.30 to 5.00 | O=C(CC1NC(N2CCN(c3ccccc3)CC2)=NC1=O)Nc1cccc(Cl)c1Cl (stereo not drawn) [Compound 51-14]
6.00 to 7.00 | CN(CCc1ccc(Cl)cc1)CCN(C)C[C@H]1O[C@@H](n2cnc3c(N)ncnc32)[C@H](O)[C@@H]1O [Compound 52-1]
4.30 to 5.00 | O=C(CC1NC(N2CCN(c3ccccc3)CC2)=NC1=O)NC1CCCCC1 (stereo not drawn) [Compound 52-14]
5.00 to 6.00 | O=C(CC1NC(N2CCN(c3ccccc3)CC2)=NC1=O)NCC1CCCCC1 (stereo not drawn) [Compound 53-14]
4.30 to 5.00 | COc1ccccc1C(O)CC1N=C(N2CCN(c3ccccc3)CC2)NC1=O (stereo not drawn) [Compound 54-14]
6.00 to 7.00 | CN(CCNc1ccccn1)C[C@H]1O[C@@H](n2cnc3c(N)ncnc32)[C@H](O)[C@@H]1O [Compound 56-1]
6.00 to 7.00 | COCCNCCN(C)C[C@H]1O[C@@H](n2cnc3c(N)ncnc32)[C@H](O)[C@@H]1O [Compound 59-1]
6.00 to 7.00 | O=C(CC1NC(N2CCN(c3ccccc3)CC2)=NC1=O)Nc1ccc(Cl)c(Cl)c1 (stereo not drawn) [Compound 59-14]
4.30 to 5.00 | COc1ccccc1NC(=O)CC1NC(N2CCN(c3ccccc3)CC2)=NC1=O (stereo not drawn) [Compound 60-14]
4.30 to 5.00 | COc1cccc(NC(=O)CC2NC(N3CCN(c4ccccc4)CC3)=NC2=O)c1 (stereo not drawn) [Compound 61-14]
> 7.00 | CN(CCNCCOc1ccccc1)C[C@H]1O[C@@H](n2cnc3c(N)ncnc32)[C@H](O)[C@@H]1O [Compound 63-1]
5.00 to 6.00 | COc1cc(NC(=O)CC2NC(N3CCN(c4ccccc4)CC3)=NC2=O)ccc1Cl (stereo not drawn) [Compound 64-14]
4.30 to 5.00 | O=C(CC1NC(N2CCN(c3ccccc3)CC2)=NC1=O)Nc1ccc2c(c1)OCO2 (stereo not drawn) [Compound 65-14]
6.00 to 7.00 | COCC(C)NCCN(C)C[C@H]1O[C@@H](n2cnc3c(N)ncnc32)[C@H](O)[C@@H]1O (stereo partly drawn) [Compound 67-1]
4.30 to 5.00 | O=C(CC1NC(N2CCN(c3ccccc3)CC2)=NC1=O)Nc1ccccc1Br (stereo not drawn) [Compound 68-14]
6.00 to 7.00 | Cc1ccccc1C(=O)CC1NC(N2CCN(c3ccccc3)CC2)=NC1=O (stereo not drawn) [Compound 69-14]
> 7.00 | CN(CCNCCc1c(Cl)cccc1Cl)C[C@H]1O[C@@H](n2cnc3c(N)ncnc32)[C@H](O)[C@@H]1O [Compound 72-1]
6.00 to 7.00 | CN(CCNCCOc1cccc(F)c1)C[C@H]1O[C@@H](n2cnc3c(N)ncnc32)[C@H](O)[C@@H]1O [Compound 73-1]
> 7.00 | Nc1ncnc2c1ncn2[C@@H]1O[C@H](CNCCNCCc2ccc(Cl)cc2)[C@@H](O)[C@H]1O [Compound 74-1]

Further lines, the compound ahead of its results:

SMILES | pIC50
Cc1ccc(C(=O)CC2NC(N3CCN(c4cccnc4)CC3)=NC2=O)cc1 (stereo not drawn) [Compound 43-14] | 5.00 to 6.00
CC1CCN(CCN(C)C[C@H]2O[C@@H](n3cnc4c(N)ncnc43)[C@H](O)[C@@H]2O)CC1 [Compound 44-1] | 6.00 to 7.00
Cc1ccc(C(=O)CC2NC(N3CCN(Cc4ccncc4)CC3)=NC2=O)cc1 (stereo not drawn) [Compound 44-14] | 5.00 to 6.00
CN(CCN1CCN(CCc2ccccc2)CC1)C[C@H]1O[C@@H](n2cnc3c(N)ncnc32)[C@H](O)[C@@H]1O [Compound 45-1] | 6.00 to 7.00
Cc1ccc(C(=O)CC2NC(N(C)CCN(C)c3ccccc3)=NC2=O)cc1 (stereo not drawn) [Compound 45-14] | 4.30 to 5.00
N#Cc1cccc(C(=O)CC2NC(N3CCN(c4ccccc4)CC3)=NC2=O)c1 (stereo not drawn) [Compound 46-14] | 5.00 to 6.00
O=C(CC1NC(N2CCN(c3ccccc3)CC2)=NC1=O)c1cccc(Cl)c1 (stereo not drawn) [Compound 47-14] | 6.00 to 7.00
COc1ccccc1C(=O)CC1NC(N2CCC(c3ccccc3)CC2)=NC1=O (stereo not drawn) [Compound 48-14] | 6.00 to 7.00
CN(CCNC1CCNCC1)C[C@H]1O[C@@H](n2cnc3c(N)ncnc32)[C@H](O)[C@@H]1O [Compound 53-1] | 6.00 to 7.00
CN(CCNC1CCCCC1)C[C@H]1O[C@@H](n2cnc3c(N)ncnc32)[C@H](O)[C@@H]1O [Compound 54-1] | > 7.00
CN(CCNCCc1c[nH]c2ccccc12)C[C@H]1O[C@@H](n2cnc3c(N)ncnc32)[C@H](O)[C@@H]1O [Compound 55-1] | > 7.00
COc1ccccc1C(=O)CC1NC(N2CCC(O)(c3ccccc3)CC2)=NC1=O (stereo not drawn) [Compound 55-14] | 6.00 to 7.00
O=C(CC1NC(N2CCc3ccccc3C2)=NC1=O)Nc1ccc(Cl)cc1 (stereo not drawn) [Compound 56-14] | 6.00 to 7.00
CN(CCNc1ccccc1)CC1O[C@@H](n2cnc3c(N)ncnc32)[C@H](O)[C@@H]1O (stereo partly drawn) [Compound 57-1] | > 7.00
O=C(CC1NC(N2CCC(c3ccccc3)CC2)=NC1=O)Nc1ccc(Cl)cc1 (stereo not drawn) [Compound 57-14] | 5.00 to 6.00
CC(CO)NCCN(C)C[C@H]1O[C@@H](n2cnc3c(N)ncnc32)[C@H](O)[C@@H]1O (stereo partly drawn) [Compound 58-1] | > 7.00
O=C(CC1NC(N2CCN(c3ccccc3)CC2)=NC1=O)Nc1ccc(Cl)cc1Cl (stereo not drawn) [Compound 58-14] | 6.00 to 7.00

SMILES | pIC50
CN(CCNCCc1ccccc1Cl)C[C@H]1O[C@@H](n2cnc3c(N)ncnc32)[C@H](O)[C@@H]1O [Compound 60-1] | > 7.00
CN(CCNCCc1ccc(Cl)cc1)C[C@H]1O[C@@H](n2cnc3c(N)ncnc32)[C@H](O)[C@@H]1O [Compound 61-1] | > 7.00
CCC(COC)NCCN(C)C[C@H]1O[C@@H](n2cnc3c(N)ncnc32)[C@H](O)[C@@H]1O (stereo partly drawn) [Compound 62-1] | 6.00 to 7.00
COc1ccc(NC(=O)CC2NC(N3CCN(c4ccccc4)CC3)=NC2=O)cc1 (stereo not drawn) [Compound 62-14] | 5.00 to 6.00
COc1cc(Cl)ccc1NC(=O)CC1NC(N2CCN(c3ccccc3)CC2)=NC1=O (stereo not drawn) [Compound 63-14] | 6.00 to 7.00
CNCCNC[C@H]1O[C@@H](n2cnc3c(N)ncnc32)[C@H](O)[C@@H]1O [Compound 64-1] | 6.00 to 7.00
CN(CCNC1CCCC1)C[C@H]1O[C@@H](n2cnc3c(N)ncnc32)[C@H](O)[C@@H]1O [Compound 65-1] | 6.00 to 7.00
CC1CCCCN1CCCNCCN(C)C[C@H]1O[C@@H](n2cnc3c(N)ncnc32)[C@H](O)[C@@H]1O (stereo partly drawn) [Compound 66-1] | 6.00 to 7.00
Cc1cc(Cl)ccc1NC(=O)CC1NC(N2CCN(c3ccccc3)CC2)=NC1=O (stereo not drawn) [Compound 66-14] | 5.00 to 6.00
Cc1ccc(NC(=O)CC2NC(N3CCN(c4ccccc4)CC3)=NC2=O)cc1 (stereo not drawn) [Compound 67-14] | 5.00 to 6.00
CCCCNCCN(C)C[C@H]1O[C@@H](n2cnc3c(N)ncnc32)[C@H](O)[C@@H]1O [Compound 68-1] | > 7.00
CN(CCNCCc1ccc(O)cc1)C[C@H]1O[C@@H](n2cnc3c(N)ncnc32)[C@H](O)[C@@H]1O [Compound 70-1] | > 7.00
O=C(CC1NC(N2CCN(c3ccccc3)CC2)=NC1=O)NCC1CCOCC1 (stereo not drawn) [Compound 70-14] | 4.30 to 5.00
CN(CCNC1CCC(C(C)(C)C)CC1)C[C@H]1O[C@@H](n2cnc3c(N)ncnc32)[C@H](O)[C@@H]1O (stereo partly drawn) [Compound 71-1] | 6.00 to 7.00
COc1ccccc1C(=O)CC1NC(N2Cc3ccccc3C2)=NC1=O (stereo not drawn) [Compound 71-14] | 5.00 to 6.00
O=C(CC1NC(N2CC=C(c3ccccc3)CC2)=NC1=O)Nc1ccc(Cl)cc1 (stereo not drawn) [Compound 72-14] | 6.00 to 7.00
O=C(CC1NC(N2CCC(O)(c3ccccc3)CC2)=NC1=O)Nc1ccc(Cl)cc1 (stereo not drawn) [Compound 73-14] | 6.00 to 7.00
